Laboratory results as given in patent US20240228481A1, “NOVEL SULFONAMIDE SERIES OF QR2 INHIBITORS TO TACKLE OXIDATIVE STRESS AND COGNITIVE DECLINE” (CARMEL HAIFA UNIVERSITY ECONOMIC CORPORATION LTD., priority 2021, published 2024).

What was measured:
Format in all cases: biochemical
QR2 [1] = molecular target: T1, QR2 (Homo sapiens, UniProt P16083); experiment: QR2 enzymatic activity assay (menadione/BNAH), fluorescence readout; design: purchased Sigma-Aldrich
T1 sequence (P16083 1-231): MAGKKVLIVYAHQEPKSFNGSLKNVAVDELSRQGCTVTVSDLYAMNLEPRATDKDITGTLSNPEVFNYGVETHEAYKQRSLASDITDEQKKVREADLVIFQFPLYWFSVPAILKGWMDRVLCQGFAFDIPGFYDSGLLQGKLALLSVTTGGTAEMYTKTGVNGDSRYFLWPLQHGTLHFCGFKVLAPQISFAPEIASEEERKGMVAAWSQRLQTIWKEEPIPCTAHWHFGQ
Description: (§1) The enzymatic activity of QR2 (10 nM) was measured using menadione (both Sigma-Aldrich) as substrate and dihydrobenzylnicotamide (BNAH; Tocris) as co-substrate (Boutin et al., 2005). The reaction was performed in 50 mM Tris HCl, 150 mM NaCl 0.01% Tween-20 pH=8.5 (Sigma-Aldrich) at room temperature. Briefly, 3 μL of menadione alone (200 μM) or a mixture of menadione and QR2 (200 μM of menadione and 10 nM of QR2) were dispensed in 1536-well black Nunc plates (Thermo-Fisher) using a Multidrop™ Combi Reagent Dispenser (Thermo-Fisher) and pre-incubated with compounds for 10 min. BNAH (200 μM) was then added (3 μL) to the reaction using a BioNex Solutions BNX 1536 plate washer and the plates were incubated for another 10 min. […] The initial HTS was done with approximately 200,000 compounds at a single concentration of 5 μM. The chemical libraries used were Selleck Chemicals Bioactives, the Drug-like set from Enamine, HitFinder collection from Maybridge, Spectrum Collection from Microsource, Lopac from Sigma-Aldrich and the diversity sets from ChemDiv and ChemBridge. Initial “hit” compounds were defined as causing >30% reduction of enzyme activity. […] “Hit” compounds resulting from both the fluorescence and absorbance assay were tested in a dose-response, and median inhibition concentration (IC50) values were determined. In parallel, the same dose response was used in a selectivity assay where QR2 enzyme was replaced by QR1 (also known as—NQO1, 10 nM; Sigma-Aldrich).
(§2) In order to establish a varied, flexible and chemically amenable starting point from which to develop such inhibitors, the inventors ran a standardized QR2 assay (see methods) against ˜200,000 compounds, from a varied assortment of chemical libraries.

QR1 (NQO1) [2] = molecular target: T2, QR1 (NQO1) (Homo sapiens, UniProt P15559); experiment: Selectivity assay with QR1 in place of QR2, absorbance readout
T2 construct: purchased Sigma-Aldrich
T2 sequence (P15559 whole entry): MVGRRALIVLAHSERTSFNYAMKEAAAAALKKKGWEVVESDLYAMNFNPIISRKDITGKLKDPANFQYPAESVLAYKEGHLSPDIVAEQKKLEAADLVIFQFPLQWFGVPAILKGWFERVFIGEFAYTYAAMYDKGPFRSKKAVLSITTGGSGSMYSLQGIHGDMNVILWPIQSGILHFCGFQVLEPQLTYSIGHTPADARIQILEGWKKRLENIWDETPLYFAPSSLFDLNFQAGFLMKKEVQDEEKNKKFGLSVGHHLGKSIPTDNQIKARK
Description: (§3) The enzymatic activity of QR2 (10 nM) was measured using menadione (both Sigma-Aldrich) as substrate and dihydrobenzylnicotamide (BNAH; Tocris) as co-substrate (Boutin et al., 2005). The reaction was performed in 50 mM Tris HCl, 150 mM NaCl 0.01% Tween-20 pH=8.5 (Sigma-Aldrich) at room temperature. Briefly, 3 μL of menadione alone (200 μM) or a mixture of menadione and QR2 (200 μM of menadione and 10 nM of QR2) were dispensed in 1536-well black Nunc plates (Thermo-Fisher) using a Multidrop™ Combi Reagent Dispenser (Thermo-Fisher) and pre-incubated with compounds for 10 min. BNAH (200 μM) was then added (3 μL) to the reaction using a BioNex Solutions BNX 1536 plate washer and the plates were incubated for another 10 min. […] The initial HTS was done with approximately 200,000 compounds at a single concentration of 5 μM. The chemical libraries used were Selleck Chemicals Bioactives, the Drug-like set from Enamine, HitFinder collection from Maybridge, Spectrum Collection from Microsource, Lopac from Sigma-Aldrich and the diversity sets from ChemDiv and ChemBridge. Initial “hit” compounds were defined as causing >30% reduction of enzyme activity. Compounds suspected to be fluorescent were re-assayed in an absorbance assay at 350 nm using the same reaction but in a higher volume (100 μL), in a transparent plate (Greiner Bio-One). “Hit” compounds resulting from both the fluorescence and absorbance assay were tested in a dose-response, and median inhibition concentration (IC50) values were determined. In parallel, the same dose response was used in a selectivity assay where QR2 enzyme was replaced by QR1 (also known as—NQO1, 10 nM; Sigma-Aldrich).
(§4) In order to establish a varied, flexible and chemically amenable starting point from which to develop such inhibitors, the inventors ran a standardized QR2 assay (see methods) against ˜200,000 compounds, from a varied assortment of chemical libraries. […] Compounds that replicated the initial hit result were then assayed similarly, against NQO1, to evaluate compound specificity (FIG. 1B). From the HTS, a series of compounds containing a sulfonamide central linker, with an amine on one side and a heterocycle on the other, were identified and selected for SAR development (FIG. 1C).

QR1 (NQO1) [3] = molecular target: T2, QR1 (NQO1); experiment: Selectivity assay with QR1 in place of QR2, fluorescence readout
Description: as §3, §4

QR2 [4] = molecular target: T1, QR2; experiment: QR2 enzymatic activity assay (menadione/BNAH), absorbance readout at 350 nm; design: purchased Sigma-Aldrich
Description: as §1, §2

Row | SMILES | IC50 (QR2 [1]) [µM] | IC50 (QR1 (NQO1) [2]) [µM] | IC50 (QR1 (NQO1) [3]) [µM] | IC50 (QR2 [4]) [µM]
1 | Cc1nc(-c2ccc(C)c(S(=O)(=O)N3CCCCCC3)c2)cs1 [PCM-0213796] | > 9.99 | > 9.99 | > 9.99 | 2.44
2 | Cc1cc(-c2ccc(C)c(S(=O)(=O)NCc3cccnc3)c2)n[nH]1 [PCM-0213811] | 3.16 | > 9.99 | > 9.99 | 0.98
3 | Cc1nc(-c2ccc(C)c(S(=O)(=O)NCCCN3CCCC3=O)c2)cs1 [PCM-0213793] | 5.45 | > 9.99 | > 9.99 | 2.91
4 | Cc1ccc(-c2nnc(-c3ccccc3)o2)cc1S(=O)(=O)N1CCC(C)CC1 [PCM-0127586] | 5.97 | > 9.99 | > 9.99 | 1.2
5 | Cc1cccn2cc(-c3cccc(S(=O)(=O)NCCCN4CCCC4=O)c3)nc12 [PCM-0213794] | 0.25 | > 9.99 | > 9.99 | 0.11
6 | Cc1nc(-c2ccc(C)c(S(=O)(=O)N3CCC(C)CC3)c2)cs1 [PCM-0197104] | 7.4 | > 9.99 | > 9.99 | 4.58
7 | Cc1nc(-c2ccc(C)c(S(=O)(=O)N(C)C)c2)cs1 [PCM-0213803] | 2.8 | > 9.99 | > 9.99 | 0.1
8 | Cc1ccc(-c2nnc(-c3ccccc3)o2)cc1S(=O)(=O)NCc1cccnc1 [PCM-0213813] | 6.49 | > 9.99 | > 9.99 | 1.17
9 | Cc1ccn2cc(-c3cccc(S(=O)(=O)NCc4cccnc4)c3)nc2c1 [PCM-0213812] | 9.62 | 8.6 | > 9.99 | 0.75
10 | COCC1CN(S(=O)(=O)Cc2ccccc2)CC12CCNCC2 (centres unmarked) [PCM-0109036] | > 9.9 | > 9.99 | > 9.9 | > 9.99
11 | O=c1n(Cc2ccc(Cl)cc2)nc2ccc(S(=O)(=O)N3CCCCC3)cn12 [PCM-0140113] | > 9.9 | > 9.99 | > 9.9 | > 9.99
12 | Cc1ccn2cc(-c3ccc(C)c(S(=O)(=O)N4CCCC4)c3)nc2c1 [PCM-0213809] | 0.51 | > 9.99 | > 9.99 | 0.18
13 | Cc1ccn2cc(-c3ccc(C)c(S(=O)(=O)N4CCN(C(=O)c5ccco5)CC4)c3)nc2c1 [PCM-0213790] | 0.27 | 7.15 | > 9.99 | 0.11
14 | CS(=O)(=O)N(Cc1cccnc1)C1CN(C(=O)c2c[nH]c3ccccc23)C1 [PCM-0105406] | > 9.9 | > 9.99 | > 9.9 | 8.43
15 | Cc1ccc(-c2cn3cccc(C)c3n2)cc1S(=O)(=O)N1CCN(C)CC1 [YB-540] | 0.425 | – | > 9.99 | –
16 | Cc1ccn2cc(-c3cccc(S(=O)(=O)N(C)C)c3)nc2c1 [PCM-0213801] | – | > 9.99 | > 9.99 | –
17 | CCCS(=O)(=O)N1CCCc2cc(NC(=O)c3ccco3)ccc21 [PCM-0120563] | > 9.9 | > 9.99 | > 9.9 | > 9.99
18 | Cc1cc(-c2ccc(C)c(S(=O)(=O)NCC3CCN(Cc4ccco4)CC3)c2)on1 [PCM-0136246] | 3.98 | > 9.99 | > 9.9 | 2.56
19 | Cc1ccc(-c2nnc(-c3ccccc3)o2)cc1S(=O)(=O)N1CCCCCC1 [PCM-0213797] | 3.38 | > 9.99 | > 9.99 | 1.06
20 | Cc1cc(-c2ccc(C)c(S(=O)(=O)N(C)C)c2)n[nH]1 [PCM-0213802] | 0.39 | > 9.99 | > 9.99 | 0.16
21 | Cc1csc(-c2cc(S(=O)(=O)NC3CCCCC3)c(C)n2C)n1 [PCM-0195577] | > 9.9 | > 9.99 | > 9.9 | > 9.99
22 | Cc1nc(-c2ccc(C)c(S(=O)(=O)N3CCCC3)c2)cs1 [PCM-0213807] | 1.55 | > 9.99 | > 9.99 | 0.37
23 | Cc1cc(-c2ccc(C)c(S(=O)(=O)N3CCN(C(=O)c4ccco4)CC3)c2)n[nH]1 [PCM-0213791] | 0.26 | > 9.99 | > 9.99 | 0.08
24 | Cc1ccc(-c2nnc(-c3ccccc3)o2)cc1S(=O)(=O)N1CCCC1 [PCM-0213805] | 1.48 | > 9.99 | > 9.99 | 0.25

Further lines, results first:

Row | IC50 (QR2 [1]) [µM] | IC50 (QR1 (NQO1) [2]) [µM] | IC50 (QR1 (NQO1) [3]) [µM] | IC50 (QR2 [4]) [µM] | SMILES
25 | > 9.9 | > 9.99 | > 9.9 | > 9.99 | CCOC(=O)c1cc(-c2ccc(OC)c(S(=O)(=O)N3CCCc4ccccc43)c2)on1 [PCM-0120247]
26 | 2.06 | > 9.99 | > 9.9 | 3.83 | COc1ccc(S(=O)(=O)N2CCC(NC(=O)N3CCCC3)CC2)cc1 [PCM-0154188]
27 | > 9.8 | – | > 9.8 | – | COc1cc(NS(C)(=O)=O)ccc1Cc1c2ccccc2nc2ccccc12 [PCM-0090313]
28 | > 9.8 | – | > 9.8 | – | CN(C)S(=O)(=O)c1cccc2ccccc12 [PCM-0071569]
29 | > 9.9 | > 9.99 | > 9.9 | > 9.99 | CS(=O)(=O)N(C1CC1)C1CCOC2(CCN(C(=O)C3(c4ccccc4)CC3)CC2)C1 (centres unmarked) [PCM-0207818]
30 | > 9.9 | > 9.99 | > 9.9 | > 9.99 | CCCn1cc(C2CCN(S(=O)(=O)c3ccc(C(C)(C)C)cc3)CC2)c2cccnc21 [PCM-0105813]
31 | 4.82 | > 9.99 | > 9.9 | 3.12 | CCN(CC)S(=O)(=O)c1cc(-c2nnc(-c3ccccc3)o2)ccc1C [PCM-0127546]
32 | 5.62 | < 0.75 | < 0.83 | 4.03 | O=S(=O)(Nc1cccc(-c2cn3ccsc3n2)c1)c1ccc2c(c1)OCCO2 [PCM-0190999]
33 | > 9.9 | > 9.99 | > 9.9 | > 9.99 | Cc1c(-c2nnc(C3CCC3)o2)c(S(=O)(=O)NCc2ccc(Cl)cc2)c(C)n1C [PCM-0128885]
34 | 0.83 | > 9.99 | 8.77 | 2.03 | COc1ccc(OC)c(S(=O)(=O)Nc2cccc(-c3cn4c(C)csc4n3)c2)c1 [PCM-0121306]
35 | > 9.9 | > 9.99 | > 9.9 | 9.05 | CCCn1cc(C2=CCN(S(=O)(=O)Cc3ccccc3)CC2)c2cccnc21 [PCM-0105851]
36 | 3.59 | > 9.99 | 5.39 | 8.98 | CCOC(=O)c1c(S(=O)(=O)N(CC)c2cccc(C)c2)c(C)n(C)c1C [PCM-0119438]
37 | > 9.8 | – | > 9.8 | – | COCCNC(=O)N1CCN(S(=O)(=O)c2c(C)c(C)c(C)c(C)c2C)CC1 [PCM-0072788]
38 | 7.04 | – | > 9.8 | – | Cc1c(C)c(C)c(S(=O)(=O)N2CCNC(=O)C2)c(C)c1C [PCM-0083647]
